US10399966B2, “Compounds for treatment of trypanosomes and neurological pathogens and uses thereof” (The University of North Carolina at Chapel Hill, priority 2016, dated 2019)
Like-named read-outs stand apart in the source and are kept apart here.

Key:
human hepatocytes HepG2 = assay: Cytotoxicity against HepG2 cells
[1] = Efficacy PK blood samples, chronic model; type: in vivo, mouse; settings: 50 mg/kg po b.i.d.
Description: In a model of the chronic phase of HAT, compound 1 was administered to five mice infected with T. b. brucei TREU667 at 50 mg/kg/po b.i.d.×10 days, beginning 21 days post-infection. […] Efficacy PK blood samples were collected from three of the five mice prior to dose 15, and at 1 h and 6 h post-dose. Average plasma levels of the test compound were 15.8±8.7 μM (pre-dose), […] (1 h), and 26.7±7.1 μM (6 h). Compound 1 attained 5/5 cures as determined by the absence of detectable parasitemia in any of the treated mice through 180 days post-infection (FIG. 2). No mice receiving vehicle alone had spontaneous cures.

[2] = Distribution between mouse plasma and brain (brain penetration, ip); type: in vivo
How it was run: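 Mice (n=3) received a single 5 mg/kg ip dose in 7% Tween 80, 3% ethanol, 5% DMSO, 0.9% saline and were sacrificed 1 h post-dose. Plasma and acetonitrile brain homogenates analysed by LC/MS/MS; brain concentration corrected for 2.5% vasculature volume, assuming 1 g = 1 mL.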

[3] = Brain and plasma time-course after oral dosing; type: in vivo, mouse
Description: The brain and plasma concentrations of compound 1 were studied in a time-course experiment following oral dosing at 50 mg/kg (Table 15). […] At 24 h, the plasma concentrations are undetectable and brain levels are down to sub-micromolar concentrations. Compared to the previous experiment (Table 14), the BPR ratio for 1 is lower at 1 h post-dose (1.48 vs. 4.0) probably due to the oral route of administration (as opposed to the ip route used before) leading to slower systemic absorption and distribution.

[4] = Metabolic stability in human liver microsomes; type: in vitro ADME
Description: (§1) Metabolic stability was evaluated using liver microsomes derived from mouse and human sources. Microsomal incubations were carried out according to a protocol described previously (Wang et al., Antimicrob. Agents Chemother. 54:2507 (2010)) with modifications. Briefly, substrate stock solutions were prepared in DMSO and DMSO content was kept at 0.5% (v/v) in final incubations. Incubation mixtures ([…]), liver microsomes (0.5 mg/mL) from mouse (pool of 1000, CD-1 male mouse) or human (pool of 50, mixed gender) (XenoTech LLC, Lenexa, Kans.) in a phosphate buffer (100 mM, pH 7.4) containing 3.3 mM MgCl2. After a 5-minute pre-equilibration period at 37° C., reactions (in triplicate) were initiated by adding the NADPH cofactor (1 mM). For NADPH-independent reactions, the cofactor was replaced with water. Aliquots (10 μl) of the reaction mixtures were removed at 0, 15, 30, and 60 minutes and individually mixed with 200 μL of ice-cold acetonitrile containing internal standard. The mixtures were vortex-mixed, and precipitated protein was removed by centrifugation at 2,250×g for 15 min. The supernatant fractions were dried using a 96-well microplate evaporator (Apricot Designs Inc., Covina, Calif.) under N2 at 50° C. and reconstituted with 100 μL 50% methanol containing 0.1% trifluoroacetic acid before UPLC-MS/MS analysis. In vitro half-life (t1/2) was obtained by analyzing the substrate concentration vs. incubation time curve using the one-phase exponential decay model (GraphPad Prism® 5.0, San Diego, Calif.).

[5] = Metabolic stability in mouse liver microsomes; type: in vitro ADME
Description: as §1

[6] = system: human lymphocytes CRL-8155; assay: Cytotoxicity against CRL-8155 cells
Description: The selectivity of each compound for the parasite over each of the two cell lines was calculated.

[7] = Table 14, mice, single ip dose 5 mg/kg, one hour post-dose, ± SEM of 3 mice (compound 3: 6 mice)
[8] = single oral dose 50 mg/kg, mice, 1 h
[9] = single oral dose 50 mg/kg, mice, 4 h
[10] = single oral dose 50 mg/kg, mice, 8 h
[11] = Table 12, after 60 min (where t1/2 > 60 min)

O=C(Nc1ccc2sc(-c3ccc(F)c(F)c3)nc2c1)N1CC[C@H](F)C1 [Compound 1, (S)-2-(3,4-Difluorophenyl)-5-(3-fluoro-N-pyrrolidylamido)benzothiazole]
toxicity to the HepG2 cells (in words) (human hepatocytes HepG2): no detectable toxicity | EC50 (human hepatocytes HepG2; Homo sapiens, HepG2, read-out: HepG2 EC50): > 50 µM | EC90 (human hepatocytes HepG2; read-out: HepG2 EC90, concentration required to inhibit growth by 90%, human hepatocytes): > 50 µM | Average plasma levels ([1]; 1 h post dose 15): 23.1 ± 603 µM | Average plasma levels ([1]; 6 h post dose 15): 26.7 ± 7.1 µM | Average plasma levels ([1]; prior to dose 15 (pre-dose)): 15.8 ± 8.7 µM | Average brain/plasma ratio ([2]; Table 2, mouse, n = 3): 4.0000 ± 0.624 | Average [compound] brain ([2]; Table 8, groups of 3 mice (compound 3: ± SEM of 6 mice)): 9.07 ± 6.88 µM | Brain/plasma ratio ([2]; Table 14, mice, single ip dose 5 mg/kg, one hour post-dose): 4.0 | [compound]Brain [2, 7]: 9.07 ± 3.973 µM | [compound]Plasma [2, 7]: 2.27 ± 0.888 µM | concentration at 1 h ([2]; mouse, in vivo, 5 mg/kg, Table 2, mouse, n = 3, read-out: Average concentration in brain): 9070 ± 6880 nM | concentration at 1 h ([2]; mouse, in vivo, 5 mg/kg, Table 2, mouse, n = 3, read-out: Average concentration in plasma): 2270 ± 1540 nM | concentration at 60 min ([2]; mouse, in vivo, 5 mg/kg, Table 5 r15, mouse brain penetration (60 min), n = 3): 2270 ± 1540 nM | concentration at 1 h ([2]; mouse, in vivo, 5 mg/kg, Table 8, groups of 3 mice (compound 3: ± SEM of 6 mice), read-out: Average [compound] plasma): 2270 ± 1540 nM | AUC0 min-∞, brain ([3]; mouse, in vivo, po, 50 mg/kg): 43116.8 ± 2304 µM·min | AUC0 min-∞, plasma ([3]; mouse, in vivo, po, 50 mg/kg): 10798 ± 1975 µM·min | [compd]Brain ([3]; mouse, in vivo, po, 50 mg/kg): sub-micromolar | Brain/plasma ratio [3, 8]: 1.48 | [compd]Brain [3, 8]: 38.23 ± 13.51 µM | [compd]Plasma [3, 8]: 27.14 ± 9.91 µM | Brain/plasma ratio [3, 9]: 4.43 | [compd]Brain [3, 9]: 45.2 ± 10.4 µM | [compd]Plasma [3, 9]: 10.25 ± 2.21 µM | Brain/plasma ratio [3, 10]: 5.48 | [compd]Brain [3, 10]: 48.08 ± 2.47 µM | [compd]Plasma [3, 10]: 8.97 ± 1.05 µM | Human microsomes, percentage of compound remaining [4, 11]: 53% | half-life at 1.5 μM ([4]; both sexes, human, liver microsomes, pH 7.4, Table 12, 37° C., NADPH (1 mM), microsomes 0.5 mg/mL, test compounds 1.5 μM, read-out: Human microsomes t1/2): > 1 h | half-life at 3 μM ([4]; both sexes, liver microsomes, pH 7.4, human microsomes, read-out: microsomal half-life): 1 h | Microsome t1/2 (min) Mouse ([5]; Table 5): >60 min | Mouse microsomes, percentage of compound remaining [5, 11]: 73% | half-life at 3 μM ([5]; male, CD-1, liver microsomes, pH 7.4, mouse microsomes, read-out: microsomal half-life): > 1 h | half-life at 1.5 μM ([5]; male, CD-1, mouse, liver microsomes, pH 7.4, Table 12, 37° C., NADPH (1 mM), microsomes 0.5 mg/mL, test compounds 1.5 μM, read-out: Mouse microsomes t1/2): > 1 h | toxicity to the CRL-8155 cells (in words) [6]: no detectable toxicity | EC50 ([6]; read-out: CRL-8155 EC50, concentration required to inhibit growth by 50%, human lymphoblasts): > 50 µM | EC90 ([6]; read-out: CRL-8155 EC90, concentration required to inhibit growth by 90%, human lymphoblasts): > 50 µM
